From US20060088583A1, “Artificial oxygen carrier containing preventive agents of metHb formation” (Oxygenix Co., Ltd., priority 2004, published 2006)

How the values were obtained:
[1] = biological target: T1, hemoglobin vesicle (methemoglobin formation) (Homo sapiens, UniProt P68871+P69905); assay: Autoxidation of hemoglobin vesicle in the atmospheric air (37° C.), rate of methemoglobin from absorbance ratio 405/430 nm; type: biochemical; conditions: for Time required for 50% metHb formation: control 34.0; for effect to inhibit methemoglobin formation (FIG. 1): encapsulated in hemoglobin vesicle, same manner as Example 1; for Initial rate of metHb formation: control 1.3
T1 construct: obtained by purification of human red cells derived from the donated blood; from tissue; host or cells: human red cells from donated blood
Protocol: Otherwise, such components were not added to the above hemoglobin solution. Thereafter, using Remolino™ (manufactured by Millipore Japan), each of the obtained mixtures was filtrated through an FM microfilter with a pore size of 0.22 μm (manufactured by Fuji Photo Film Co., Ltd.), so as to obtain a processed hemoglobin solution. Mixed lipid powders (a mixture consisting of phosphatidylcholine, cholesterol, and DPEA; manufactured by Nippon Fine Chemical) were added, little by little, to the hemoglobin solution, resulting in the concentration of lipid of 4.5 wt %. The mixture was then stirred at 4° C. for 12 hours, so as to obtain a multilayer vesicle, in which hemoglobin had been encapsulated. The particle diameter and the number of coating layers were regulated by the extrusion method using Remolino. The FM microfilters were used in the order of pore sizes of 3, 0.8, 0.65, 0.45, 0.3, and 0.22 μm. The obtained hemoglobin vesicle dispersion was diluted with a saline solution. The diluted solution was subjected to ultracentrifugation (50,000 g, 40 minutes), and the supernatant hemoglobin solution was then eliminated by aspiration. Thereafter, a polyoxyethylene-binding lipid [N-(monomethoxy polyethylene glycol-carbamyl)distearoyl phosphatidyl ethanolamine; the molecular weight of the polyethylene glycol chain: 5,300] dispersed in a saline solution was added thereto, at an amount corresponding to 0.3 mol % of the lipid on the outer surface of the vesicle. The mixture was stirred at 25° C. for 2 hours, so as to modify the surface of the hemoglobin vesicle with polyethylene glycol. The concentration of hemoglobin was set at 10 g/dL, and the mixed solution was then filtrated through a 0.45-μm filter (Dismic-25; […]), so as to obtain a polyethylene glycol-modified hemoglobin vesicle.
Each sample was collected over time. Thereafter, the rate of methemoglobin was calculated from the ratio of the absorbance of the hemoglobin vesicle solution at 405 nm to that of at 430 nm.
A hemoglobin vesicle dispersion containing each of a tyrosine derivative, various types of antioxidants, and various types of phenol derivatives, at certain concentrations, was produced. Thereafter, the rate of methemoglobin formation was measured in the same manner as in Example 1.
Thereafter, the rate of 50% methemoglobin formation was measured in the same manner as in Example 1.
Thereafter, the time required for 50% methemoglobin formation was measured in the same manner as in Example 1.

[2] = biological target: hemoglobin solution in an oxy state (methemoglobin formation) (Homo sapiens, UniProt P68871+P69905); assay: Repeated addition of hydrogen peroxide to oxyhemoglobin solution, cyanomethemoglobin method; type: biochemical; conditions: 60 minutes; 310 μM hydrogen peroxide every 10 minutes, 37° C., air; 5 g/dL oxyhemoglobin; 0.5 wt % methemoglobin and/or 1 mM L-tyrosine
Protocol: Thereafter, 310 μM hydrogen peroxide (the same concentration as that of heme in methemoglobin) was added to the above solution, every 10 minutes, for 60 minutes in the atmospheric air at 37° C., while stirring. 300 μl of a sample was collected immediately before addition of each hydrogen peroxide, and 20 μl of catalase (5,000 units) was promptly added to each sample, so as to eliminate the hydrogen peroxide. Thereafter, the rate of methemoglobin was calculated by the cyanomethemoglobin method.

[3] = biological target: T1, hemoglobin vesicle (methemoglobin formation); assay: Autoxidation of hemoglobin vesicle in the atmospheric air (4° C.), chilled storage; type: biochemical; conditions: [L-tyrosine]=1 mM
Protocol: As a result, a slight amount of dityrosine was confirmed. Thereafter, this experiment was performed on a mixture obtained by adding hydrogen peroxide to a methemoglobin solution containing L-tyrosine. As a result, a large amount of dityrosine was confirmed. This is because of the peroxidase activity of methemoglobin. Thereafter, the change in methemoglobin concentration was observed during chilled storage (4° C.).
Each sample was collected over time. Thereafter, the rate of methemoglobin was calculated from the absorbance ratio. […] 1 month later, the rate of methemoglobin were 4.4% and 9.3%, respectively. 3 months later, they were 10.2% and 24.3%, respectively.

[4] = Maximum dissolvable concentration of L-tyrosine; type: physicochemical
hemoglobin [5] = biological target: T2, hemoglobin (Homo sapiens, UniProt P68871+P69905); assay: Isothermal titration microcalorimetry of L-tyrosine with hemoglobin; type: binding
hemoglobin [6] = biological target: T2, hemoglobin; assay: Oxygen dissociation curve of hemoglobin mixed with L-tyrosine; type: biochemical

T2 sequence (P69905 2-142 limits assumed): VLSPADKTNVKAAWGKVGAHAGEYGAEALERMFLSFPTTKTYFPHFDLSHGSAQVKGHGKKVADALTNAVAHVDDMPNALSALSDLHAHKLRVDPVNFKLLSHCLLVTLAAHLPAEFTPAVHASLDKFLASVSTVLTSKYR
T2 sequence (P68871 2-147 limits assumed): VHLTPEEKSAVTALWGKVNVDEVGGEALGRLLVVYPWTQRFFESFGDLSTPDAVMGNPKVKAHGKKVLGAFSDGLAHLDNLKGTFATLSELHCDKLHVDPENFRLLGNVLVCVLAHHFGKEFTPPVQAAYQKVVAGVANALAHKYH
T1 sequence (P69905 2-142 limits assumed): as the sequence (P69905 2-142 limits assumed) above
T1 sequence (P68871 2-147 limits assumed): as the sequence (P68871 2-147 limits assumed) above
Sequence of hemoglobin solution in an oxy state (methemoglobin formation) (P69905 2-142 limits assumed): as the sequence (P69905 2-142 limits assumed) above
Sequence of hemoglobin solution in an oxy state (methemoglobin formation) (P68871 2-147 limits assumed): as the sequence (P68871 2-147 limits assumed) above

Compound | Time required for 50% metHb formation ([1]; Table 1, concentration 0.1 mM) [h] | Time required for 50% metHb formation ([1]; Table 1, concentration 1 mM) [h] | Initial rate of metHb formation ([1]; concentration 0.1 mM) [% hr] | Initial rate of metHb formation ([1]; concentration 1 mM) [% hr] | Time required for 50% metHb formation ([1]; Table 1, concentration 3 mM) [h] | Initial rate of metHb formation ([1]; concentration 3 mM) [% hr] | also measured
L-Tyr-L-Tyr |  |  |  |  |  |  | Time required for 50% metHb formation ([1]; Table 2, concentration 0.1 mM): 32.0 h; Time required for 50% metHb formation ([1]; Table 2, concentration 0.25 mM): 32.0 h
N[C@H](Cc1ccc(O)cc1)C(=O)O [D-tyrosine] |  |  |  |  |  |  | effect to inhibit methemoglobin formation (FIG. 1) [1]: does not have such an effect of inhibiting methemoglobin formation
Oc1ccccc1 [Phenol] | 35.6 | 33.2 | 1.1 | 1.3 |  |  | 
O=c1c(O)c(-c2ccc(O)cc2)oc2cc(O)cc(O)c12 [Kaempferol] |  | 25.0 |  | 3.1 |  |  | 
L-Tyr-L-Glu |  |  |  |  |  |  | Time required for 50% metHb formation ([1]; Table 2, concentration 0.1 mM): 33.0 h; Time required for 50% metHb formation ([1]; Table 2, concentration 0.25 mM): 33.0 h
N[C@@H](Cc1ccc(O)cc1)C(=O)O [L-tyrosine] |  | 52.0 |  | 0.9 |  |  | rate of methemoglobin [2]: approximately 80%; rate of methemoglobin ([3]; 4° C., 1 month later, no L-tyrosine: 9.3%): 4.4%; rate of methemoglobin ([3]; 4° C., 3 months later, no L-tyrosine: 24.3%): 10.2%; rate of methemoglobin ([3]; when prepared, no L-tyrosine: 3.0%): 3.0%; maximum concentration that can be dissolved [4]: approximately 20 mM; heat of binding with hemoglobin (hemoglobin [5]): almost no heat of binding was observed; Time required for 50% metHb formation ([1]; Table 1, concentration 0.25 mM): 42.0 h; Time required for 50% metHb formation ([1]; Table 1, concentration 0.5 mM): 48.0 h; Time required for 50% metHb formation ([1]; Table 2, concentration 0.25 mM): 42.0 h; Initial rate of metHb formation ([1]; concentration 0.25 mM): 1.1 % hr; Initial rate of metHb formation ([1]; concentration 0.5 mM): 1.0 % hr; effect to inhibit methemoglobin formation (FIG. 1) [1]: inhibits methemoglobin formation; change in the degree of oxygen affinity (hemoglobin [6]): no change in the degree of oxygen affinity was observed; influence upon the allosteric effect (hemoglobin [6]): no particular influence upon the allosteric effect was found
O=C(O)Cc1ccc(O)cc1 [p-hydroxyphenyl acetic acid] | 30.6 | 30.2 | 1.5 | 1.7 | 28.3 | 1.8 | 
Catalase |  |  |  |  |  |  | Time required for 50% metHb formation ([1]; Table 2, concentration 50000 unit/mL): 45.0 h
3,4-dihydroxyphenol-L-alanine | 30.8 | 14.4 | 1.4 | 3.4 | 8.2 | 5.3 | 
O=C(O)CCc1ccc(O)cc1 [3-(p-hydroxyphenyl)pronionic acid, 3-(p-hydroxy-phenyl)pronionic acid] |  | 32.2 |  | 1.0 | 34.2 | 1.2 | Time required for 50% metHb formation ([1]; Table 1, concentration not given): 34.7 h; Initial rate of metHb formation ([1]; concentration not given): 0.9 % hr
O=C(O[C@@H]1Cc2c(O)cc(O)cc2O[C@@H]1c1cc(O)c(O)c(O)c1)c1cc(O)c(O)c(O)c1 [Epigallocatechin gallate] |  | 12.4 |  | 3.4 | 13.0 | 3.2 | Time required for 50% metHb formation ([1]; Table 1, concentration 2 mM): 13.6 h; Initial rate of metHb formation ([1]; concentration 2 mM): 3.2 % hr
O=c1cc(-c2ccc(O)cc2)oc2cc(O)cc(O)c12 [Apigenin] | 34.8 | 35.6 | 1.6 | 1.4 |  |  | 
